The values below come from US11839613B2, “Pyrimidine derivatives as PGE2 receptor modulators” (IDORSIA PHARMACEUTICALS LTD, priority 2017, dated 2023).

The term IC50 denotes the point on the concentration scale where inhibition reaches its midpoint.

One assay addresses EP4 (Homo sapiens (Human), UniProt P35408). Briefly: hEP4 cAMP assay (BT549 breast cancer cells, HTRF cAMP). It counts as cell-based. The note with it: antagonistic activity, PGE2 6 nM. An outline of the steps: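 cAMP accumulation quantified by HTRF competition between cellular cAMP and d2-labeled cAMP for cryptate anti-cAMP antibody. Cells: endogenously EP4-expressing BT549, buffer with 2 mM IBMX; 45 min RT compound preincubation preceded 30 min RT challenge with PGE2 at 6 nM final.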

The target of another assay is PTGER4 (EP4) (Homo sapiens (Human), UniProt P35408). The assay is described as follows: cell-based.
The next assay has as its target EP2 (Homo sapiens (Human), UniProt P43116). Briefly: hEP2 cAMP assay (SF295 glioblastoma cells, HTRF cAMP). It counts as cell-based. The conditions noted are these: antagonistic activity. The method, boiled down:
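PGE2-driven cAMP accumulation was measured by HTRF in SF295 cells, which express endogenous EP2 only. Cells in assay buffer with 2 mM IBMX were pre-incubated 45 min at RT, then incubated 30 min at RT. Detection used competition between cellular cAMP and d2-cAMP for a cryptate anti-cAMP antibody.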

The next assay concerns the target PTGER2 (EP2) (Homo sapiens (Human), UniProt P43116). The assay is described as follows: hEP2 b-arrestin assay (PathHunter HEK 293 PTGER2 b-arrestin cells). It is filed as cell-based. The conditions noted are these: antagonistic activity, beta-arrestin assay; read-out: hEP2 b-arr IC50. Here is the method: Plate is pre-incubated 15 minutes at 37° C. Then five microliters of PGE2 (final conc. 5 μM) are transferred into the assay plate. Plate is incubated 120 minutes at 37° C.
(each concentration is measured in duplicate)

Sequence of EP2 (P43116 whole entry): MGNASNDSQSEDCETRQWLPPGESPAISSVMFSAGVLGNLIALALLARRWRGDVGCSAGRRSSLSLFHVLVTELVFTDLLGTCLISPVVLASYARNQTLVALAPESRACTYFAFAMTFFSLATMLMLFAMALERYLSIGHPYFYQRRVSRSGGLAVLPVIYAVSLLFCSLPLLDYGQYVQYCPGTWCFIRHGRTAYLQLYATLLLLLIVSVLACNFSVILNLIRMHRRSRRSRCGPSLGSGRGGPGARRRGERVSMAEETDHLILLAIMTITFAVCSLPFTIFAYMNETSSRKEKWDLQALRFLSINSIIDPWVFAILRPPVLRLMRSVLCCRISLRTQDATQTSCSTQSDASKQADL
Sequence of PTGER2 (EP2) (P43116 whole entry): as above
Sequence of EP4 (P35408 whole entry): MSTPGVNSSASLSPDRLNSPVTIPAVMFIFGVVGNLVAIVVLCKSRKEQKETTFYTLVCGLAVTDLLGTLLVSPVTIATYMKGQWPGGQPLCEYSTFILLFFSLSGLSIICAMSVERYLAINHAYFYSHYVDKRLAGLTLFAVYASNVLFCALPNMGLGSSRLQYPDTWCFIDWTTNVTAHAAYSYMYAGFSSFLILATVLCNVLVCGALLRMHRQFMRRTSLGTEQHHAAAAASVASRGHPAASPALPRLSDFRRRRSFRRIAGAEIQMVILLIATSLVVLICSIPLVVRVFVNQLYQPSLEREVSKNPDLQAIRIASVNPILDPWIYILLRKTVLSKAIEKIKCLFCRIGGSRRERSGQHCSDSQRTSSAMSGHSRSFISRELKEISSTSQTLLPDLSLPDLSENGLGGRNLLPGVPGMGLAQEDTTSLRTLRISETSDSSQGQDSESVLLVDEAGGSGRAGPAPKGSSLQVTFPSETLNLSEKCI
Sequence of PTGER4 (EP4) (P35408 whole entry): as above
Text for PTGER4 (EP4): The system is based on the Enzyme Fragment Complementation Technology. Two complementing fragments of the b-galactosidase enzyme are expressed within stably transfected cells. The larger portion of b-gal, termed EA for Enzyme Acceptor, is fused to the C-terminus of b-arrestin 2. The smaller fragment, termed ProLink™ tag, is fused to PTGER2 (EP2) or PTRGER4 (EP4) at the C-terminus. Upon activation, b-arrestin is recruited which forces the interaction of ProLink and EA, allowing complementation of the two fragments of b-gal and the formation of a functional enzyme which is capable of hydrolysing the substrate and generating a chemiluminescent signal.
Plate is incubated at 37° C., 5% CO2 for 24 hours.
Stock solutions of test compounds are made at a concentration of 10 mM in DMSO, and serially diluted in DMSO to concentrations required for inhibition dose response curves (tested concentration range 10 μM-2 nM or 1 μM-0.2 nM).
Five microliters of diluted compounds are transferred into the assay plate. Plate is pre-incubated 15 minutes at 37° C. Then five microliters of PGE2 (final conc. 20 nM) are transferred into the assay plate. Plate is incubated 120 minutes at 37° C.
Twelve I of reagent are transferred to the assay plate and incubate for 1 hour at RT in the dark. Luminescence counts are read on a BMG Fluostar Optima reader according to manufacturer's instructions.
For each compound concentration calculate of the percentage of activity compared to DMSO control value as average ±STDEV. (each concentration is measured in duplicate)

Consider `CSc1cc(-c2cc(NCCc3ccc4cc[nH]c4c3)ncn2)ccc1C(=O)O` [Ex 328, 4-{6-[2-(1H-Indol-6-yl)-ethylamino]-pyrimidin-4-yl}-2-methylsulfanyl-benzoic acid], for which the 50% inhibitory concentration (IC50) against EP4 was determined as 938 nM; at PTGER4 (EP4) it was 919 nM; at EP2, 108 nM; at PTGER2 (EP2), 287 nM.

As to `CCOc1cc(-c2cc(NCCc3cc4ccsc4cc3C)ncn2)ccc1C(=O)O` [Ex 254, 2-Ethoxy-4-{6-[2-(6-methyl-benzo[b]thiophen-5-yl)-ethylamino]-pyrimidin-4-yl}-benzoic acid], the half-inhibitory concentration (IC50) amounted to 379 nM on EP4, 864 nM at PTGER4 (EP4), 70 nM on EP2 and 45 nM at PTGER2 (EP2).

As for `CCOc1cc(-c2cc(NCCc3cc(F)c4sccc4c3)ncn2)sc1CC(=O)O` [Example 456, (3-Ethoxy-5-{6-[2-(7-fluoro-benzo[b]thiophen-5-yl)-ethylamino]-pyrimidin-4-yl}-thiophen-2-yl)-acetic acid], the IC50 is 14 nM at EP4 (BT549 cells), 21 nM against PTGER4 (EP4), 311 nM against EP2 and 129 nM on PTGER2 (EP2).

For the compound `CCOc1cc2c(cc1CCNc1cc(-c3ccc(C(=O)O)c(SC)c3)ncn1)OCCO2` [Ex 137, 4-{6-[2-(7-Ethoxy-2,3-dihydro-benzo[1,4]dioxin-6-yl)-ethylamino]-pyrimidin-4-yl}-2-methylsulfanyl-benzoic acid], the concentration for half-maximal inhibition (IC50) at EP4 was determined as 120 nM; on PTGER4 (EP4), 124 nM; against EP2 it was 4 nM; at PTGER2 (EP2), 14 nM.

As for `O=C(O)c1ccc(-c2cc(NCCc3cc4ccoc4cc3F)ncn2)cc1OC1CCC1` [Ex 200], the IC50 at EP4 was determined as 227 nM; on PTGER4 (EP4), 510 nM; against EP2 it was 108 nM; at PTGER2 (EP2), 57 nM.

For the compound `CCOc1cc(-c2cc(NCCc3ccc4scc(C)c4c3)ncn2)ccc1OCC(=O)O` [Example 466, (2-Ethoxy-4-{6-[2-(3-methyl-benzo[b]thiophen-5-yl)-ethylamino]-pyrimidin-4-yl}-phenoxy)-acetic acid], the IC50 is 1210 nM against EP4 (BT549 cells), 171 nM at PTGER4 (EP4), 190 nM on EP2 and 206 nM on PTGER2 (EP2).

On to `CCSc1cc(-c2cc(NCCc3cc4c(cc3OC)OCCO4)ncn2)ccc1C(=O)O` [Ex 110, 2-Ethylsulfanyl-4-{6-[2-(7-methoxy-2,3-dihydro-benzo[1,4]dioxin-6-yl)-ethylamino]-pyrimidin-4-yl}-benzoic acid], for which the IC50 is 81 nM against EP4, 179 nM at PTGER4 (EP4), 61 nM against EP2 and 56 nM at PTGER2 (EP2).

Consider `CCOc1cc(-c2cc(NCCc3ccc4sccc4c3)ncn2)sc1C(=O)O` [Ex 5, 5-[6-(2-Benzo[b]thiophen-5-yl-ethylamino)-pyrimidin-4-yl]-3-ethoxy-thiophene-2-carboxylic acid], for which the IC50 against EP4 came to 3 nM; against PTGER4 (EP4), 5 nM; at EP2 it was 28 nM; on PTGER2 (EP2) it was 39 nM.

Take `CCCc1cc(-c2cc(NCCc3cc4ccsc4cc3OC)ncn2)ccc1CC(=O)O` [Example 385, (4-{6-[2-(6-Methoxy-benzo[b]thiophen-5-yl)-ethylamino]-pyrimidin-4-yl}-2-propyl-phenyl)-acetic acid]: the IC50 against EP4 turned out to be 134 nM; against PTGER4 (EP4), 71 nM; against EP2 it was 180 nM; on PTGER2 (EP2), 30 nM.

`CC(C)COc1cc(-c2cc(NCCc3cc(F)c4sccc4c3)ncn2)ccc1C(=O)O` [Example 453, 4-{6-[2-(7-Fluoro-benzo[b]thiophen-5-yl)-ethylamino]-pyrimidin-4-yl}-2-isobutoxy-benzoic acid]: the IC50 at EP4 (BT549 cells) amounted to 118 nM; on PTGER4 (EP4), 70 nM; against EP2, 281 nM; at PTGER2 (EP2), 102 nM.

Regarding `CSc1cc(-c2cc(NCCc3ccc4occc4c3)ncn2)ccc1C(=O)O` [Ex 248, 4-[6-(2-Benzofuran-5-yl-ethylamino)-pyrimidin-4-yl]-2-methylsulfanyl-benzoic acid], the 50% inhibitory concentration (IC50) against EP4 stood at 366 nM; at PTGER4 (EP4) it was 270 nM; on EP2, 50 nM; on PTGER2 (EP2) it was 132 nM.

As to `CCOc1cc(-c2cc(NCCc3cc4ccoc4cc3F)ncn2)ccc1OCC(=O)O` [Ex 142, (2-Ethoxy-4-{6-[2-(6-fluoro-benzofuran-5-yl)-ethylamino]-pyrimidin-4-yl}-phenoxy)-acetic acid], the IC50 against EP4 came to 127 nM; on PTGER4 (EP4) it was 180 nM; at EP2, 177 nM; on PTGER2 (EP2) it was 121 nM.

For the compound `CCOc1cc(-c2cc(NCCc3cc4sccc4cc3OC)ncn2)ccc1C(=O)O` [Ex 218], the IC50 was found to be 278 nM against EP4, 651 nM against PTGER4 (EP4), 405 nM against EP2 and 160 nM on PTGER2 (EP2).

With `CCCCOc1cc(-c2cc(NCCc3cc(F)c4sccc4c3)ncn2)ccc1C(=O)O` [Example 454, 2-Butoxy-4-{6-[2-(7-fluoro-benzo[b]thiophen-5-yl)-ethylamino]-pyrimidin-4-yl}-benzoic acid], the IC50 on EP4 (BT549 cells) was determined as 225 nM; against PTGER4 (EP4), 212 nM; against EP2, 608 nM; on PTGER2 (EP2), 88 nM.

Take `CCOc1cc(-c2cc(NCCc3cc(F)c4sccc4c3)ncn2)ccc1-c1nnn[nH]1` [Example 452, {6-[3-Ethoxy-4-(1H-tetrazol-5-yl)-phenyl]-pyrimidin-4-yl}-[2-(7-fluoro-benzo[b]thiophen-5-yl)-ethyl]-amine]: the IC50 against EP4 (BT549 cells) stood at 18 nM; at PTGER4 (EP4) it was 21 nM; on EP2 it was 371 nM; on PTGER2 (EP2) it was 103 nM.

Regarding `CCOc1cc(-c2cc(NCCc3cc4c(cc3C)OCCO4)ncn2)ccc1OCC(=O)O` [Ex 184, (2-Ethoxy-4-{6-[2-(7-methyl-2,3-dihydro-benzo[1,4]dioxin-6-yl)-ethylamino]-pyrimidin-4-yl}-phenoxy)-acetic acid], the IC50 against EP4 is 200 nM; against PTGER4 (EP4), 378 nM; on EP2, 164 nM; on PTGER2 (EP2), 171 nM.

As to `CCOc1cc(-c2cc(NCCc3cc(Cl)c4sccc4c3)ncn2)ccc1C(=O)O` [Example 358, 4-{6-[2-(7-Chloro-benzo[b]thiophen-5-yl)-ethylamino]-pyrimidin-4-yl}-2-ethoxy-benzoic acid], the IC50 against EP4 came out at 90 nM; at PTGER4 (EP4), 138 nM; against EP2, 219 nM; at PTGER2 (EP2) it was 538 nM.

Regarding `CCOc1cc(-c2cc(NCCc3cc4cccnc4cc3F)ncn2)sc1-c1noc(=O)[nH]1` [Example 348, 3-(3-Ethoxy-5-{6-[2-(7-fluoro-quinolin-6-yl)-ethylamino]-pyrimidin-4-yl}-thiophen-2-yl)-[1,2,4]oxadiazol-5(4H)-one], the IC50 at EP4 was 8 nM; against PTGER4 (EP4), 2 nM; on EP2, 113 nM; on PTGER2 (EP2), 172 nM.

With `CCOc1cc(-c2cc(NCCc3ccc4scc(C)c4c3)ncn2)ccc1C(=O)O` [Example 465, 2-Ethoxy-4-{6-[2-(3-methyl-benzo[b]thiophen-5-yl)-ethylamino]-pyrimidin-4-yl}-benzoic acid], the IC50 is 1400 nM against EP4 (BT549 cells), 827 nM at PTGER4 (EP4), 245 nM against EP2 and 313 nM at PTGER2 (EP2).

For `CCOc1cc(-c2cc(NCCc3c(F)c(F)c4cc(C)oc4c3OC)ncn2)ccc1C(=O)O` [Ex 215], the IC50 was determined as 259 nM against EP4, 379 nM against PTGER4 (EP4), 650 nM at EP2 and 1590 nM on PTGER2 (EP2).

For `CCOc1cc(-c2cc(NCCc3ccc4ccccc4c3C)ncn2)sc1C(=O)O` [Example 7, 3-Ethoxy-5-{6-[2-(1-methyl-naphthalen-2-yl)-ethylamino]-pyrimidin-4-yl}-thiophene-2-carboxylic acid], the IC50 was found to be 5 nM against EP4, 14 nM against PTGER4 (EP4), 12 nM at EP2 and 21 nM at PTGER2 (EP2).

For the compound `CCCOc1cc(-c2cc(NCCc3ccc4ccccc4c3C)ncn2)ccc1C(=O)O` [Ex 183, 4-{6-[2-(1-Methyl-naphthalen-2-yl)-ethylamino]-pyrimidin-4-yl}-2-propoxy-benzoic acid], the IC50 was 178 nM at EP4, 223 nM at PTGER4 (EP4), 67 nM at EP2 and 115 nM on PTGER2 (EP2).

For the compound `COc1cc2ccsc2cc1CCNc1cc(-c2ccc(C(=O)O)c(SC)c2)ncn1` [Ex 152, 4-{6-[2-(5-Methoxy-benzo[b]thiophen-6-yl)-ethylamino]-pyrimidin-4-yl}-2-methylsulfanyl-benzoic acid], the IC50 against EP4 came to 145 nM; on PTGER4 (EP4), 352 nM; at EP2, 111 nM; at PTGER2 (EP2) it was 119 nM.

In the case of `CCCc1cc(-c2cc(NCCc3ccc4sccc4c3F)ncn2)ccc1CC(=O)O` [Example 386, (4-{6-[2-(4-Fluoro-benzo[b]thiophen-5-yl)-ethylamino]-pyrimidin-4-yl}-2-propyl-phenyl)-acetic acid], the IC50 against EP4 amounted to 54 nM; against PTGER4 (EP4), 28 nM; against EP2, 453 nM; on PTGER2 (EP2), 64 nM.

In the case of `CCOc1cc(-c2cc(NCCc3cc4c(cc3OC)OCO4)ncn2)ccc1CC(=O)O` [Ex 299], the IC50 on EP4 was 444 nM; on PTGER4 (EP4), 367 nM; against EP2 it was 250 nM; on PTGER2 (EP2), 307 nM.
